Test results from US20260137706A1, “METHODS OF TREATING INFLAMMATORY DISEASES” (INTERLINE THERAPEUTICS, INC., priority 2023, published 2026).
pIC50: −log10 of the molar value. Where two headings read alike, the source gives them in different places.

How the values were obtained:
[1] = target: T1, GST-RIPK2 fusion protein (human RIPK2, amino acids 1-310) (Homo sapiens, UniProt O43353); assay: RIPK2 binding competition assay (TR-FRET, Tracer 199 displacement); settings: 10 nM Tracer 199, 1 nM GST-RIPK2, read-out: RIPK2 IC50
T1 construct: made in house; host or cells: baculovirus infected Sf9 cells
Summary of the method: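 GST-RIPK2 (human aa 1-310, Sf9-expressed; final 1 nM) with Tracer 199 (final 10 nM) and Tb-anti-GST (final 0.5 nM) in Tris pH 7.5 buffer, 45 min at 22 °C. TR-FRET 665/620 nm ratio after 337 nm excitation; normalized to no-inhibitor (0%) and no-protein (−100%), giving IC50.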

[2] = target: T2, binding of His-XIAP(BIR2)-avi fusion protein to GST-RIPK2 fusion protein (RIPK2/XIAP) (Homo sapiens, UniProt O43353); assay: RIPK2-XIAP binding competition PPI assay (TR-FRET); settings: for Emax: read-out: PPI Amax bin; for pIC50: read-out: PPI IC50 bin
T2 construct: made in house; host or cells: baculovirus infected Sf9 cells
Summary of the method: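 Compounds (in DMSO, 100-fold stock) incubated 120 min at 23 °C with 1 nM GST-RIPK2 (aa 1-310) and 25 nM His-XIAP(BIR2 aa 152-231)-avi, plus anti-His-XL665 and anti-GST-Tb, in pH 7.5 Tris buffer. Read-out: 665/520 nm emission ratio. Normalized to no-inhibitor (0%) and 50 nM GSK583 (−100%); Amax binned A–D.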

[3] = test system: NF-κB pathway (SEAP) in THP1-Dual cells; assay: THP-1 Dual cell SEAP assay (L18-MDP stimulated); assay type: cell-based; settings: Homo sapiens, THP1-Dual, read-out: NF-κB THP1 IC50 bin
Summary of the method: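 THP1-Dual cells (~25,000/well) were preincubated 30 min with serially diluted compounds, then stimulated with 10 ng/mL L18-MDP (final) for 20-24 h at 37 °C. Supernatant SEAP was read with QUANTI-Blue at OD 620-655 nm after 2 h. IC50 came from non-linear fits of % inhibition versus DMSO/L18-MDP controls after media-blank subtraction.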

[4] = RIPK2/XIAP binding competition PPI assay, Amax
[5] = RIPK2/XIAP binding competition PPI assay

T2 sequence (O43353 1-310 limits assumed): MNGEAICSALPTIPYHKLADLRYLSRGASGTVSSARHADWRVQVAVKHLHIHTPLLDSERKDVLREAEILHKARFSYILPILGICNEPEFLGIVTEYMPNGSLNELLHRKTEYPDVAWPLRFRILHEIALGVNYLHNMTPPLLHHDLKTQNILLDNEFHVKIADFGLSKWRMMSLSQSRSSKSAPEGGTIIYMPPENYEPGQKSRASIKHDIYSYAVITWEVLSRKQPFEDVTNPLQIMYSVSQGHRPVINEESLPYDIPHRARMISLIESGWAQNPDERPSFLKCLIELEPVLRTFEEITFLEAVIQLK
T1 sequence (O43353 1-310): as the sequence (O43353 1-310 limits assumed) above

| Compound | pIC50 [1] | Emax [2, 4] | pIC50 [2, 5] | pIC50 [3] | Emax [2] |
| --- | --- | --- | --- | --- | --- |
| COc1cc2ncc(-c3ccc4c(C)nn(C)c4c3)n2cc1S(=O)(=O)C(C)(C)C [Example 108, 6-(6-(tert-butylsulfonyl)-7-methoxyimidazo[1,2-a]pyridin-3-yl)-1,3-dimethyl-1H-indazole] | < 7.70 | < 30% | < 7.70 | < 6.00 | – |
| COc1cc2ncc(-c3cc(F)c(N)nc3F)n2cc1S(=O)(=O)C(C)(C)c1nc(C)no1 [Example 64, 3,6-difluoro-5-(7-methoxy-6-((2-(3-methyl-1,2,4-oxadiazol-5-yl)propan-2-yl)sulfonyl)imidazo[1,2-a]pyridin-3-yl)pyridin-2-amine] | < 7.70 | > 80% | < 7.70 | < 6.00 | – |
| COc1cn2ncc(-c3cc(F)c(N)nc3F)c2nc1N1C(=O)OCC1(C)C [Example 116, 3-(3-(6-amino-2,5-difluoropyridin-3-yl)-6-methoxypyrazolo[1,5-a]pyrimidin-5-yl)-4,4-dimethyloxazolidin-2-one] | < 7.70 | 55 to 80% | < 7.70 | < 6.00 | – |
| COc1cc2ncc(-c3cc4cc[nH]c4nc3F)n2cc1S(=O)(=O)C(C)(C)C [Example 216, 6-(tert-butylsulfonyl)-3-(6-fluoro-1H-pyrrolo[2,3-b]pyridin-5-yl)-7-methoxyimidazo[1,2-a]pyridine] | > 9.00 | > 80% | > 9.00 | > 7.30 | – |
| COc1cn2ncc(-c3cc(F)c(OC)c(NS(=O)(=O)C4(CO)CC4)c3)c2cc1S(=O)(=O)C(C)(C)C [Example 181, N-(5-(5-(tert-butylsulfonyl)-6-methoxypyrazolo[1,5-a]pyridin-3-yl)-3-fluoro-2-methoxyphenyl)-1-(hydroxymethyl)cyclopropane-1-sulfonamide] | > 9.00 | > 80% | > 9.00 | > 7.30 | – |
| CC(C)(O)COc1cc2ncc(-c3cc(Cl)c(N)nc3F)n2cc1S(=O)(=O)C(C)(C)C [Example 240, 1-((3-(6-amino-5-chloro-2-fluoropyridin-3-yl)-6-(tert-butylsulfonyl)imidazo [1,2-a]pyridin-7-yl)oxy)-2-methylpropan-2-ol] | 8.60 to 9.00 | > 80% | 8.60 to 9.00 | 6.60 to 7.30 | – |
| COc1cc2ncc(-c3cc(F)c(OC)c(NS(=O)(=O)C4CCC4)c3)n2cc1S(=O)(=O)C(C)(C)C [Example 145, N-(5-(6-(tert-butylsulfonyl)-7-methoxyimidazo[1,2-a]pyridin-3-yl)-3-fluoro-2-methoxyphenyl)cyclobutanesulfonamide] | > 9.00 | > 80% | > 9.00 | > 7.30 | – |
| C[C@H](CO)COc1cn2ncc(-c3cc(Cl)c(N)nc3F)c2cc1S(=O)(=O)C(C)(C)C [Example 200, (R)-3-((3-(6-amino-5-chloro-2-fluoropyridin-3-yl)-5-(tert-butylsulfonyl)pyrazolo [1,5-a]pyridin-6-yl)oxy)-2-methylpropan-1-ol] | > 9.00 | > 80% | > 9.00 | > 7.30 | – |
| COc1cc2ncc(-c3cc4cn[nH]c4cn3)n2cc1S(=O)(=O)C(C)(C)C [Example 11, 5-(6-(tert-butylsulfonyl)-7-methoxyimidazo[1,2-a]pyridin-3-yl)-1H-pyrazolo[3,4-c]pyridine] | 7.70 to 8.60 | – | < 7.70 | > 7.30 | < 30% |
| CC(F)(CO)COc1cc2ncc(-c3cc(F)c(N)nc3F)n2cc1S(=O)(=O)C(C)(C)C (stereo not shown) [Example 204, 3-((3-(6-amino-2,5-difluoropyridin-3-yl)-6-(tert-butylsulfonyl)imidazo [1,2-a]pyridin-7-yl)oxy)-2-fluoro-2-methylpropan-1-ol] | 8.60 to 9.00 | > 80% | 8.60 to 9.00 | 6.60 to 7.30 | – |
